Where two headings read alike, the source gives them in different places.
Columns and labels:
[1] = tested on: HCV genotype 1a (H77 strain) replicon in HUH-7 cells; experiment: HCV replicon luciferase reporter assay, genotype 1a; assay type: cell-based; conditions: Hepatitis C virus, Huh-7, 72 h, 3 days incubation
How it was run: (§1)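 Replicon inhibition for both genotypes was measured as Renilla luciferase signal (EnduRen, 7.5 μM final, 2 h) after 3-day, 37° C exposure of replicon-bearing HUH-7 cells in 4% FCS DMEM, 0.5% DMSO. The 1b construct carries S1179I; the 1a H77 construct carries P1496L and S2204I. Twenty-point, 3-fold dilutions were fitted four-parametrically for EC50, and CC50 was taken from multiplexed Cell Titer-Blue.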

[2] = tested on: HCV genotype 1b (Con1) replicon in HUH-7 cells; experiment: HCV replicon luciferase reporter assay, genotype 1b; assay type: cell-based; conditions: Hepatitis C virus, Huh-7, 72 h, 3 days incubation
How it was run: as §1

[3] = HCV genotype 1a replicon luciferase, read-out: LE_1a (EC50, range)
[4] = HCV genotype 1b replicon luciferase, read-out: LE_1b (EC50, range)
[5] = HCV genotype 1a replicon luciferase assay, range class, read-out: LE_1a (EC50, range)
[6] = HCV genotype 1b replicon luciferase assay, range class, read-out: LE_1b (EC50, range)
[7] = GETYPE1A, HCV genotype 1a replicon luciferase, read-out: LE_1a (EC50, range)
[8] = GETYPE1B, HCV genotype 1b replicon luciferase, read-out: LE_1b (EC50, range)
[9] = HCV genotype 1a replicon luciferase, read-out: LE_1a (EC50)
[10] = HCV genotype 1b replicon luciferase, read-out: LE_1b (EC50)

Q: Which results are given for `COc1ccc2c(O[C@@H]3C[C@H]4C(=O)N[C@]5(C(=O)NS(=O)(=O)C6(C)CC6)C[C@H]5/C=C\CC[C@@H](C)C[C@@H](C)[C@H](NC(=O)OC(C)(C)C)C(=O)N4C3)nc(-c3ccc(OC(C)C)cc3)c(OC)c2c1` [Compound 5344, tert-butyl ((2R,6S,7R,9R,13aS,14aR,16aS,Z)-2-((3-(4-isopropoxyphenyl)-4,6-dimethoxyisoquinolin-1-yl)oxy)-7,9-dimethyl-14a-(((1-methylcyclopropyl)sulfonyl)carbamoyl)-5,16-dioxo-1,2,3,5,6,7,8,9,10,11,13a,14,14a,15,16,16a-hexadecahydrocyclopropa[e]pyrrolo[1,2-a][1,4]diazacyclopentadecin-6-yl)carbamate]?
A: EC50 [1, 3]: < 5.46 nM; EC50 [2, 4]: < 5.46 nM

Q: Which results are given for `COc1ccc2c(O[C@@H]3C[C@H]4C(=O)N[C@]5(C(=O)NS(=O)(=O)C6CC6)C[C@H]5/C=C\CC[C@@H](C)C[C@@H](C)[C@H](NC(=O)O[C@H](C)C(F)(F)F)C(=O)N4C3)nc(-c3ccc(OC(C)C)c(F)c3)cc2c1` [Compound 3074, (R)-1,1,1-trifluoropropan-2-yl ((2R,6S,7R,9R,13aS,14aR,16aS,Z)-14a-((cyclopropylsulfonyl)carbamoyl)-2-((3-(3-fluoro-4-isopropoxyphenyl)-6-methoxyisoquinolin-1-yl)oxy)-7,9-dimethyl-5,16-dioxo-1,2,3,5,6,7,8,9,10,11,13a,14,14a,15,16,16a-hexadecahydrocyclopropa[e]pyrrolo[1,2-a][1,4]diazacyclopentadecin-6-yl)carbamate]?
A: EC50 [1, 5]: < 5.46 nM; EC50 [2, 6]: < 5.46 nM

Q: For `COc1cc2ccnc(O[C@@H]3C[C@H]4C(=O)N[C@]5(C(=O)NS(=O)(=O)C6(F)CC6)C[C@H]5/C=C\CC[C@@H](C)C[C@@H](C)[C@H](NC(=O)OCC(C)(C)C)C(=O)N4C3)c2cc1F` [Compound 4051, neopentyl (2R,6S,7R,9R,13aS,14aR,16aS,Z)-2-(7-fluoro-6-methoxyisoquinolin-1-yloxy)-14a-(1-fluorocyclopropylsulfonylcarbamoyl)-7,9-dimethyl-5,16-dioxo-1,2,3,5,6,7,8,9,10,11,13a,14,14a,15,16,16a-hexadecahydrocyclopropa[e]pyrrolo[1,2-a][1,4]diazacyclopentadecin-6-ylcarbamate], which EC50 [1, 3] is on record?
A: The EC50 was less than 5.46 nM.

Q: What about the EC50 [2, 4] of the same compound?
A: Its EC50 is less than 5.46 nM.

Q: What does the source list for `COc1ccc2nc(O[C@@H]3C[C@H]4C(=O)N[C@]5(C(=O)NS(=O)(=O)C6(CF)CC6)C[C@H]5/C=C\CC[C@@H](C)C[C@@H](C)[C@H](NC(=O)OC(C)(C)C(F)(F)F)C(=O)N4C3)c(C)nc2c1` [Compound 4107]?
A: EC50 [1, 7]: < 5.46 nM; EC50 [2, 8]: < 5.46 nM

Q: For `CCOc1cnc(O[C@@H]2C[C@H]3C(=O)N[C@]4(C(=O)NS(=O)(=O)C5(CF)CC5)C[C@H]4/C=C\CC[C@@H](C)C[C@@H](C)[C@H](NC(=O)OC(C)(C)C(F)(F)F)C(=O)N3C2)c2ccccc12` [Compound 4149], which EC50 [1, 7] is on record?
A: Its EC50 is less than 5.46 nM.

Q: What about the EC50 [2, 8] of the same compound?
A: The EC50 was less than 5.46 nM.

Q: How did the EC50 [1, 5] turn out when `COc1ccc2c(O[C@@H]3C[C@H]4C(=O)N[C@]5(C(=O)NS(=O)(=O)C6(CF)CC6)C[C@H]5/C=C\CC[C@@H](C)C[C@@H](C)[C@H](NC(=O)OC(C)(C)C(F)(F)F)C(=O)N4C3)ncc(C(F)(F)F)c2c1` [Compound 1175, 1,1,1-trifluoro-2-methylpropan-2-yl((2R,6S,7R,9R,13aS,14aR,16aS,Z)-14a-(((1-(fluoromethyl)cyclopropyl)sulfonyl)carbamoyl)-2-((6-methoxy-4-(trifluoromethyl)isoquinolin-1-yl)oxy)-7,9-dimethyl-5,16-dioxo-1,2,3,5,6,7,8,9,10,11,13a,14,14a,15,16,16a-hexadecahydrocyclopropa[e]pyrrolo[1,2-a][1,4]diazacyclopentadecin-6-yl)carbamate] was run?
A: Its EC50 is less than 5.46 nM.

Q: What about the EC50 [2, 6] of the same compound?
A: Its EC50 is less than 5.46 nM.

Q: For `CCOc1cnc(O[C@@H]2C[C@H]3C(=O)N[C@]4(C(=O)NS(=O)(=O)C5(CF)CC5)C[C@H]4/C=C\CC[C@@H](C)C[C@@H](C)[C@H](NC(=O)OC(C)(C)C(C)(F)F)C(=O)N3C2)c2ccccc12` [Compound 5355], which EC50 [1, 7] is on record?
A: Its EC50 is 1.01 to 5 nM.

Q: What about the EC50 [2, 8] of the same compound?
A: The EC50 was 1.01 to 5 nM.

Q: Which results are given for `COc1cnc(O[C@@H]2C[C@H]3C(=O)N[C@]4(C(=O)NS(=O)(=O)C5(CF)CC5)C[C@H]4/C=C\CC[C@H](C)C[C@@H](C)[C@H](NC(=O)OC4(C(F)(F)F)CCCOC4)C(=O)N3C2)c2ccccc12` (stereo partly drawn) [Compound 1057, 3-(trifluoromethyl)tetrahydro-2H-pyran-3-yl((2R,6S,7R,9S,13aS,14aR,16aS,Z)-14a-(((1-(fluoromethyl)cyclopropyl)sulfonyl)carbamoyl)-2-((4-methoxyisoquinolin-1-yl)oxy)-7,9-dimethyl-5,16-dioxo-1,2,3,5,6,7,8,9,10,11,13a,14,14a,15,16,16a-hexadecahydrocyclopropa[e]pyrrolo[1,2-a][1,4]diazacyclopentadecin-6-yl)carbamate]?
A: EC50 [1, 5]: < 5.46 nM; EC50 [2, 6]: < 5.46 nM

Q: Which EC50 [1, 7] does the source give for `COc1cc2nc(O[C@@H]3C[C@H]4C(=O)N[C@]5(C(=O)NS(=O)(=O)C6(C)CC6)C[C@H]5/C=C\CC[C@H](C)C[C@@H](C)[C@H](NC(=O)OC(C)(C)C(F)(F)F)C(=O)N4C3)c(C(F)(F)F)nc2cc1F` [Compound 4289] here?
A: The EC50 was 5.01 to 35 nM.

Q: What about the EC50 [2, 8] of the same compound?
A: Its EC50 is 1.01 to 5 nM.

Q: For `COCCn1nc(O[C@@H]2C[C@H]3C(=O)N[C@]4(C(=O)NS(=O)(=O)C5CC5)C[C@H]4/C=C\CC[C@@H](C)C[C@@H](C)[C@H](NC(=O)OC(C)(C)C)C(=O)N3C2)c2ccccc2c1=O` [Compound 1008, tert-butyl ((2R,6S,7R,9R,13aS,14aR,16aS,Z)-14a-((cyclopropylsulfonyl)carbamoyl)-2-((3-(2-methoxyethyl)-4-oxo-3,4-dihydrophthalazin-1-yl)oxy)-7,9-dimethyl-5,16-dioxo-1,2,3,5,6,7,8,9,10,11,13a,14,14a,15,16,16a-hexadecahydrocyclopropa[e]pyrrolo[1,2-a][1,4]diazacyclopentadecin-6-yl)carbamate], which EC50 [1, 5] is on record?
A: Its EC50 is 4.82 to 103 nM.

Q: And the EC50 [2, 6]?
A: Its EC50 is 4.82 to 103 nM.

Q: For `CC[C@@H]1C[C@@H](C)CC/C=C\[C@@H]2C[C@@]2(C(=O)NS(=O)(=O)C2(C)CC2)NC(=O)[C@@H]2C[C@@H](Oc3ncc(N4CCOCC4)c4cc(OC)ccc34)CN2C(=O)[C@H]1NC(=O)OC(C)(C)C(F)(F)F` [Compound 4207], which EC50 [1, 7] is on record?
A: Its EC50 is less than 5.46 nM.

Q: What about the EC50 [2, 8] of the same compound?
A: The EC50 was less than 5.46 nM.

Q: With `CC[C@@H]1C[C@H](C)CC/C=C\[C@@H]2C[C@@]2(C(=O)NS(=O)(=O)C2CC2)NC(=O)[C@@H]2C[C@@H](Oc3ncc(C(N)=O)c4cc(OC)ccc34)CN2C(=O)[C@H]1NC(=O)OC(C)(C)C(F)(F)F` [Compound 4345] as the compound, how does the EC50 [1, 7] read?
A: Its EC50 is 5.01 to 35 nM.

Q: And the EC50 [2, 8]?
A: The EC50 was 35 to 620 nM.

Q: How did the EC50 [1, 5] turn out when `COc1ccc2c(O[C@@H]3C[C@H]4C(=O)N[C@]5(C(=O)NS(=O)(=O)C6(C)CC6)C[C@H]5/C=C\CC[C@H](C)C[C@@H](C)[C@H](NC(=O)OC(C)(C)C(F)(F)F)C(=O)N4C3)nc(N(C)C)nc2c1` [Compound 3003, 1,1,1-trifluoro-2-methylpropan-2-yl((2R,6S,7R,9S,13aS,14aR,16aS,Z)-2-((2-(dimethylamino)-7-methoxyquinazolin-4-yl)oxy)-7,9-dimethyl-14a-(((1-methylcyclopropyl)sulfonyl)carbamoyl)-5,16-dioxo-1,2,3,5,6,7,8,9,10,11,13a,14,14a,15,16,16a-hexadecahydrocyclopropa[e]pyrrolo[1,2-a][1,4]diazacyclopentadecin-6-yl)carbamate] was run?
A: The EC50 was less than 5.46 nM.

Q: And the EC50 [2, 6]?
A: Its EC50 is less than 5.46 nM.

Q: For `[2H]C([2H])([2H])C(OC(=O)N[C@@H]1C(=O)N2C[C@H](Oc3nnc(OCC)c4ccccc34)C[C@H]2C(=O)N[C@]2(C(=O)NS(=O)(=O)C3(C)CC3)C[C@H]2/C=C\CC[C@@H](C)C[C@H]1C)(C([2H])([2H])[2H])C(F)(F)F` [Compound 5033], which EC50 [1, 3] is on record?
A: The EC50 was less than 5.46 nM.

Q: What about the EC50 [2, 4] of the same compound?
A: Its EC50 is less than 5.46 nM.

Q: With `CC[C@@H]1C[C@H](C)CC/C=C\[C@@H]2C[C@@]2(C(=O)NS(=O)(=O)C2CC2)NC(=O)[C@@H]2C[C@@H](Oc3ncc(N4CCOCC4)c4cc(OC)c(F)cc34)CN2C(=O)[C@H]1NC(=O)OC(C)(C)C` [Compound 4240, tert-butyl ((2R,6S,7R,9R,13aS,14aR,16aS,Z)-14a-((cyclopropylsulfonyl)carbamoyl)-7-ethyl-2-((7-fluoro-6-methoxy-4-morpholinoisoquinolin-1-yl)oxy)-9-methyl-5,16-dioxo-1,2,3,5,6,7,8,9,10,11,13a,14,14a,15,16,16a-hexadecahydrocyclopropa[e]pyrrolo[1,2-a][1,4]diazacyclopentadecin-6-yl)carbamate] as the compound, how does the EC50 [1, 9] read?
A: Its EC50 is 1.23 nM.

Q: And the EC50 [1, 3]?
A: Its EC50 is 1.01 to 5 nM.

Q: And the EC50 [2, 10]?
A: Its EC50 is 1.09 nM.

Q: And the EC50 [2, 4]?
A: The EC50 was 1.01 to 5 nM.

Q: Which results are given for `CCn1nc(O[C@@H]2C[C@H]3C(=O)N[C@]4(C(=O)NS(=O)(=O)C5CC5)C[C@H]4/C=C\CC[C@H](C)C[C@@H](C)[C@H](NC(=O)C(=O)N(C)C)C(=O)N3C2)c2ccccc2c1=O` [Compound 5075, N1-((2R,6S,7R,9S,13aS,14aR,16aS,Z)-14a-((cyclopropylsulfonyl)carbamoyl)-2-((3-ethyl-4-oxo-3,4-dihydrophthalazin-1-yl)oxy)-7,9-dimethyl-5,16-dioxo-1,2,3,5,6,7,8,9,10,11,13a,14,14a,15,16,16a-hexadecahydrocyclopropa[e]pyrrolo[1,2-a][1,4]diazacyclopentadecin-6-yl)-N2,N2-dimethyloxalamide]?
A: EC50 [1, 9]: ≥ 1000 nM; EC50 [1, 3]: > 87.4 nM; EC50 [2, 10]: 1000 nM; EC50 [2, 4]: > 87.4 nM

Source: US9499550B2 (BRISTOL-MYERS SQUIBB COMPANY, priority 2012, dated 2016)
